Results taken from PubChem BioAssay (NCI).
Several values for one entry are separate records, joined by “and”; a condition that tells them apart may be missing. Equal entries are not always repeated.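 Results reflect a 48-hour exposure of cells in 96-well plates to compound at five concentrations. GI50 = concentration required for 50% inhibition of growth. At the TGI there is no net growth.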

Experiments:
Assay in all cases: NCI anticancer screen, dose series, 48 h
COLO 205 colon = tested on: COLO 205 colon
HOP-92 NSCLC = tested on: HOP-92 NSCLC
IGROV1 ovarian = tested on: IGROV1 ovarian
NCI-H460 lung = tested on: NCI-H460 lung
NCI/ADR-RES ovarian = tested on: NCI/ADR-RES ovarian
PC-3 prostate = tested on: PC-3 prostate
SF-268 CNS = tested on: SF-268 CNS
SK-MEL-28 melanoma = tested on: SK-MEL-28 melanoma
UACC-257 melanoma = tested on: UACC-257 melanoma
UACC-62 melanoma = tested on: UACC-62 melanoma

| SMILES | TGI (COLO 205 colon) [µM] | TGI (HOP-92 NSCLC) | TGI (IGROV1 ovarian) [µM] | TGI (NCI-H460 lung) [µM] | TGI (NCI/ADR-RES ovarian) [µM] | TGI (PC-3 prostate) [µM] | TGI (SF-268 CNS) [µM] | TGI (SK-MEL-28 melanoma) | TGI (UACC-257 melanoma) | TGI (UACC-62 melanoma) | GI50 (COLO 205 colon) | GI50 (IGROV1 ovarian) | GI50 (SK-MEL-28 melanoma) | GI50 (UACC-257 melanoma) |
| --- | --- | --- | --- | --- | --- | --- | --- | --- | --- | --- | --- | --- | --- | --- |
| CCCCN(CC)c1nc(C)nc2c1c(C)c(C)n2-c1c(C)cc(C)cc1C | 32.6 | 21.5 µM | 29.2 | 27.5 | 27.6 | 26.6 | 31.8 | 31.5 µM | 26.9 µM | – | – | – | – | – |
| CO[C@@H](C(=O)OC1C=CC2(CC1)C(=O)N(C)c1ccccc12)c1ccccc1 (some centres undefined) | > 100 | > 100 µM | > 100 | > 100 | > 100 | > 100 | – | > 100 µM | > 100 µM | > 100 µM | – | – | – | – |
| COC(=O)C1=C(C(=O)OC)C2OC1C1C2C2(C)C(C)=C(C)C1(C)S2=O (centres undefined) | 13.8 | 32.7 µM | 39.3 | 36.3 | > 66.5 | 45.7 | 28.9 | 33.8 µM | 29.6 µM | 26.1 µM | – | – | – | – |
| N#C/C(=C\NC(=S)Nc1ccc(S(=O)(=O)Nc2ccccn2)cc1)C(N)=O | > 100 | > 100 µM | > 100 | > 100 | > 100 | > 100 | > 100 | > 100 µM | > 100 µM | > 100 µM | – | – | – | – |
| COc1cc2oc(-c3ccc(O)cc3)c(OC3OC(C)C(O)C(O)C3O)c(=O)c2c(O)c1OC (centres undefined) | > 100 | > 100 µM | > 100 | > 100 | > 100 | > 100 | > 100 | > 100 µM | > 100 µM | > 100 µM | – | – | – | – |
| O=c1oc2ccccc2c(O)c1C(c1cc(OCc2ccccc2)cc(OCc2ccccc2)c1)c1c(O)c2ccccc2oc1=O | 33.8 | > 28.3 µM | 51.2 | 11 | 83.9 | 21.1 | 33.3 | 51.8 µM | 38.2 µM | 15.7 µM | – | – | – | – |
| O=c1c2c3ccccc3[nH]c2c2cccc3c2n1CCC3 | > 100 | > 100 µM | > 100 | > 100 | > 100 | > 100 | > 100 | > 100 µM | > 100 µM | > 100 µM | – | – | – | – |
| Cc1ccccc1C1OC1C(=O)c1ccccc1N (centres undefined) | > 100 | > 100 µM | – | > 100 | > 100 | > 100 | > 100 | > 100 µM | > 100 µM | > 100 µM | – | – | – | – |
| CC(=O)NC1C(OCc2ccccc2)OC(CO)C(O)C1OCC(=O)N[C@@H](C)C(=O)N[C@H](CCC(=O)NCCNCCNc1c2ccccc2nc2cccc([N+](=O)[O-])c12)C(N)=O (some centres undefined) | > 100 | 66.5 µM | 32.7 | 36.5 | > 100 | 73 | – | > 100 µM | 43 µM | 35.2 µM | – | – | – | – |
| CC(C)(C)C(=O)C(CC(=O)c1ccccc1)C(=O)C(C)(C)C | > 100 | > 100 µM | > 100 | > 100 | > 100 | > 100 | > 100 | > 100 µM | > 100 µM | – | – | – | – | – |
| Cc1ccc(N=Nc2c3c(c(O)c4ccccc24)CCC(C)(C)O3)cc1 | 62.8 | > 100 µM | > 100 | 32.8 | > 100 | > 100 | > 100 | 42.1 µM | 23 µM | 28.1 µM | – | – | – | – |
| C=CC(=O)c1ccc2c(c1)OCCOCCOCCOCCOCCO2 | 33 | 33.5 µM | > 100 | > 100 | 54 | 76.5 | > 92.8 | 34 µM | 35.6 µM | 92 µM | – | – | – | – |
| O=C(/C(=C(/Br)I)c1ccccc1)c1ccccc1 | 36.5 | 35.6 µM | > 100 | 37.2 | 37.4 | > 100 | 48.5 | – | 43.8 µM | 34.4 µM | – | – | – | – |
| CCN(CC)CCn1c2cc3c(cc2c(=O)c2cccnc21)OCCO3 | > 10 | > 10 µM | > 10 | – | > 10 | > 10 | > 10 | > 10 µM | > 10 µM | > 10 µM | – | – | – | – |
| COc1ccc(N2C(=O)C3c4[nH]c5ccc([N+](=O)[O-])cc5c4C4CCC(C(C)(C)C)CC4C3C2=O)cc1 (centres undefined) | 69.6 | 45.7 µM | > 100 | 63.9 | > 100 | > 100 | > 100 | > 100 µM | > 100 µM | > 100 µM | – | – | – | – |
| O=C1CC(C(O)CO)CC(=O)N1 (centres undefined) | – | > 100 µM | > 100 | > 100 | > 100 | > 100 | > 100 | > 100 µM | > 100 µM | – | – | – | – | – |
| N#Cc1c(N)[nH]c(=S)c(C#N)c1-c1cccc(Cl)c1 | 40.9 | > 100 µM | > 100 | > 100 | > 100 | 60.1 | 56.1 | > 100 µM | > 100 µM | > 100 µM | – | – | – | – |
| COc1ccc(-c2c(C#N)c(S)n(C3OC(COC(C)=O)C(OC(C)=O)C(OC(C)=O)C3OC(C)=O)c(=O)c2C#N)cc1 (centres undefined) | > 100 | 67 µM and 53.5 µM | > 100 | > 100 | > 100 | > 100 | > 100 | > 100 µM and 37.3 µM | > 100 µM and 42 µM | 97.9 µM and 61.9 µM | > 100 µM and 40.7 µM | > 100 µM and 49.7 µM | > 100 µM and 20.8 µM | > 100 µM and 19.8 µM |
| c1sc(NC2=NCCO2)c2c1CCCC2 | > 100 | > 100 µM | > 100 | > 100 | > 100 | > 100 | – | > 100 µM | > 100 µM | > 100 µM | – | – | – | – |
| C[C@]12OC[C@H](c3ccccc3)N1C(=O)C1[C@H]2CC12SCCS2 (some centres undefined) | > 100 | > 100 µM | > 100 | > 100 | > 100 | > 100 | > 100 | > 100 µM | > 100 µM | > 100 µM | – | – | – | – |
| Cc1c(S(=O)(=O)c2ccccc2)c(N)n(Cc2ccccc2)c1C | > 100 | > 100 µM | > 100 | > 100 | > 100 | > 100 | > 100 | > 100 µM | > 100 µM | > 100 µM | – | – | – | – |
